Experimental data as given in US20230293539A1, “MLL1-WDR5 PROTEIN-PROTEIN INTERACTION INHIBITOR COMPOUNDS AND USES THEREOF” (HUYABIO International, LLC, priority 2022, published 2023).
Like-named read-outs stand apart in the source and are kept apart here.

Experiments:
[1] = target: TEAD1 (Homo sapiens, UniProt P28347); experiment: Selectivity panel (Table 3); type: binding
[2] = target: SHP2 E76K (Homo sapiens, UniProt Q06124, E76K); experiment: Selectivity panel (Table 3); type: biochemical
[3] = target: PRMT5 (Homo sapiens, UniProt O14744); experiment: Selectivity panel (Table 3); type: biochemical
PRMT5, sequence (O14744 whole entry, species assumed): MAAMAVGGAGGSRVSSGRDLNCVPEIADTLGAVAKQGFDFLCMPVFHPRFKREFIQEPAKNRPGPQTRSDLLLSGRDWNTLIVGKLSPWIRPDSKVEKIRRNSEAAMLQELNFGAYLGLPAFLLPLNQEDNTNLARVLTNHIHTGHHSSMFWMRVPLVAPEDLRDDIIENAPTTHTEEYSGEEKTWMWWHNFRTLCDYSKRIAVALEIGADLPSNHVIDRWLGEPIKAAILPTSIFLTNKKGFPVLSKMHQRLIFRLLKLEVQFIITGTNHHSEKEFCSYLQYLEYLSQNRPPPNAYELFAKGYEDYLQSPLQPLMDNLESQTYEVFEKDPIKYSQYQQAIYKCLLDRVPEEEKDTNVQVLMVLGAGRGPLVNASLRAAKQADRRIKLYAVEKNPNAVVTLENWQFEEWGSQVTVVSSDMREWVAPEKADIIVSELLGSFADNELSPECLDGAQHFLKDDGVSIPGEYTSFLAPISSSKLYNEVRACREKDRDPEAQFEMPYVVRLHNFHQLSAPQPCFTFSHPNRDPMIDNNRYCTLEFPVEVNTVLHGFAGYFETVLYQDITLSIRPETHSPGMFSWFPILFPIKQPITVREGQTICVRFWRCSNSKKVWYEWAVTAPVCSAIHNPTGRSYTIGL
PRMT5, sequence (Q9BQA1 whole entry partner, species assumed): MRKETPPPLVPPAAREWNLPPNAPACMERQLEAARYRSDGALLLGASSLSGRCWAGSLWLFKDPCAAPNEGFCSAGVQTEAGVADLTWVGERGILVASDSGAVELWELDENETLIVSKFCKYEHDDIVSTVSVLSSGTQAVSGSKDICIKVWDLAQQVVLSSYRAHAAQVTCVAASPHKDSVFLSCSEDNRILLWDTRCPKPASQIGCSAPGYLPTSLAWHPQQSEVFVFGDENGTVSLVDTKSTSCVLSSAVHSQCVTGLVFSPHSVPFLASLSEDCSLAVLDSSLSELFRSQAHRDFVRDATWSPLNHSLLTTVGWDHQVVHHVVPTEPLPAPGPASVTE

[4] = in vitro; settings: mouse, plasma
[5] = PK profile of HBI-2375 in plasma and brain in C57BL/6J mice; type: in vivo; settings: for AUClast / AUC(0-t) / Tmax at 7 day / Cmax at 7 day / Tmax / Cmax / MRT last: C57BL/6J mice; for concentration at 24 h / Kp / AUC(0-t): C57BL/6J; for concentration at 24 h / Kp / AUC(0-t) / Tmax at 7 day / Cmax at 7 day / Tmax / Cmax / MRT last: mouse; for concentration at 24 h: read-out: Mean Brain Concentration, Cmin = 24 h; for AUClast Ratio, group 2 vs 1 / Cmax Ratio, group 2 vs 1: 80 vs 40 mg/kg PO; for AUClast ratios females/males / Cmax ratios females/males: all three dose groups
Method: EXAMPLE 4: PK profile of compound of Formula (IIIb) (HBI-2375, HYBI-84) in plasma and brain in C57BL/6J mice: This study was conducted in accordance with the Study Protocol and Pharmaron (Ningbo) TSP's Standard Operating Procedures (SOPs) following all regulatory protocols. This study was conducted under non-GLP environment.
Following single oral gavage administration of HBI-2375 at 40 mg/kg, 80 mg/kg, and 7-day repeat oral gavage administration at 80 mg/kg in C57BL/6J mice, concentrations of HBI-2375 in plasma and brain were determined by LC-MS/MS methods. […] The maximal concentrations of HBI-2375 in brain were all observed at 4 hr post-dose. […] The exposure of HBI-2375 in plasma and brain of females were closed to that of males, the ratios were 0.989-1.22 for plasma, and 1.10-1.34 for brain.

[6] = both sexes, single PO 40 mg/kg, brain, mean
[7] = both sexes, single PO 40 mg/kg, plasma, mean
[8] = both sexes, single PO 80 mg/kg, brain, mean
[9] = both sexes, single PO 80 mg/kg, plasma, mean
[10] = mice, 7-day consecutive dosing 80 mg/kg
[11] = mice, all dose groups, listed as HBI-2375

TEAD1, sequence (P28347 whole entry, species assumed): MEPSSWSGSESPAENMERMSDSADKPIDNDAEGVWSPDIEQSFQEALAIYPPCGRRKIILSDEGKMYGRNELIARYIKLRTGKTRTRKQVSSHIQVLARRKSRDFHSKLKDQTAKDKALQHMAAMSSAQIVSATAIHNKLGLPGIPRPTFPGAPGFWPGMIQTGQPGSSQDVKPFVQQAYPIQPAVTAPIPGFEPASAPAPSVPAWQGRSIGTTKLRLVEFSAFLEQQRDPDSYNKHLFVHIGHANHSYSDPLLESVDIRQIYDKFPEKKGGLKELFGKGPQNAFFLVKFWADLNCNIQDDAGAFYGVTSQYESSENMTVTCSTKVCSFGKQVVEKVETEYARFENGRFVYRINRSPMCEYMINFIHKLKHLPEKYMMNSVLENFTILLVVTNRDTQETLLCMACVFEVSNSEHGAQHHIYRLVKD
SHP2 E76K, sequence (Q06124 whole entry E76K): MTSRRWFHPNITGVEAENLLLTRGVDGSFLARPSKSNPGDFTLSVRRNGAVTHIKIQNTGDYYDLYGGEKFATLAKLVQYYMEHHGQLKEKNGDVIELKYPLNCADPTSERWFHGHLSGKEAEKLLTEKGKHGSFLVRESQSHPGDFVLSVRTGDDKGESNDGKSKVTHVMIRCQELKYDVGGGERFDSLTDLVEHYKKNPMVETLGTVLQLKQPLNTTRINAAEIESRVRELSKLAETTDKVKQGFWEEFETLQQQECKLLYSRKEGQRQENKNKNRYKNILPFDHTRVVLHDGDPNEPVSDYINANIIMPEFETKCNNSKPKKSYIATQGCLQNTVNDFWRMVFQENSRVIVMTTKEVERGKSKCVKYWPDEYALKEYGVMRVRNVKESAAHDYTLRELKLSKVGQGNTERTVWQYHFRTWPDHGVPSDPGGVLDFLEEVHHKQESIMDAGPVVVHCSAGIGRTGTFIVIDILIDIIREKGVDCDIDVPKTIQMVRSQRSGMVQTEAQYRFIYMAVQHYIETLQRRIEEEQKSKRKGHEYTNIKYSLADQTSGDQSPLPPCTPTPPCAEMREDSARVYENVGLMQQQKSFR

For Cc1c(F)c(N)cc(C(=O)Nc2cc(-n3cc(C(=O)N4CCN(C)CC4)nn3)c(F)cc2N2C[C@@H](C)N(C)[C@@H](C)C2)c1Cl [HYBI-084, 5-amino-2-chloro-4-fluoro-N-(4-fluoro-5-(4-(4-methylpiperazine-1-carbonyl)-1H-1,2,3-triazol-1-yl)-2-((3S,5R)-3,4,5-trimethylpiperazin-1-yl)phenyl)-3-methylbenzamide], the IC50 [1] was greater than 1000 nM, the IC50 [2] was greater than 1000 nM and the IC50 [3] was greater than 1000 nM. It also gave a fraction unbound [4] of less than 0.07, an AUClast ([5]; 7-day repeat PO 80 mg/kg, brain, female) of 11446 ng·h/g and an AUClast ([5]; 7-day repeat PO 80 mg/kg, brain, male) of 8555 ng·h/g. For the same molecule, the AUClast ([5]; 7-day repeat PO 80 mg/kg, brain, mean) was 10001 ng·h/g, the AUClast ([5]; single PO 40 mg/kg, brain, female) was 2179 ng·h/g and the AUClast ([5]; single PO 40 mg/kg, brain, male) was 1879 ng·h/g. For the same molecule, the AUClast ([5]; single PO 40 mg/kg, brain, mean) was 2029 ng·h/g, the AUClast ([5]; single PO 80 mg/kg, brain, female) was 6129 ng·h/g and the AUClast ([5]; single PO 80 mg/kg, brain, male) was 5559 ng·h/g. It also gave an AUClast ([5]; single PO 80 mg/kg, brain, mean) of 5844 ng·h/g, a concentration at 24 h ([5]; brain, po, 80 mg/kg, Repeat PO Mouse at 80 mg/kg) of 136 ng/g and a concentration at 24 h ([5]; brain, po, 80 mg/kg, Single PO Mouse at 80 mg/kg) of 55 ng/g. The Kp ([5]; both sexes, brain, oral, 40 mg/kg, mice, single dosing 40 mg/kg, read-out: AUC exposure in brain as % of that in plasma) was 0.283 to 0.332, the Kp ([5]; both sexes, brain, oral, 80 mg/kg, mice, single dosing 80 mg/kg, read-out: AUC exposure in brain as % of that in plasma) was 0.361 to 0.388 and the Kp ([5]; both sexes, brain, oral, mice, all dose groups, read-out: brain exposure as % of AUC in plasma) was 0.283 to 0.588. For the same molecule, the AUC(0-t) ([5]; both sexes, plasma, po, 40 mg/kg, single PO 40 mg/kg, mean) was 6600 ng·h/mL, the AUC(0-t) ([5]; both sexes, plasma, po, 80 mg/kg, 7-day repeat PO 80 mg/kg, mean) was 17700 ng·h/mL and the AUC(0-t) ([5]; both sexes, plasma, po, 80 mg/kg, single PO 80 mg/kg, mean) was 15600 ng·h/mL. The Tmax at 7 day ([5]; both sexes, 7-day repeat PO 80 mg/kg, brain) was 4 h, the Cmax at 7 day ([5]; both sexes, 7-day repeat PO 80 mg/kg, brain, mean) was 807 ng/g and the Tmax at 7 day ([5]; both sexes, 7-day repeat PO 80 mg/kg, plasma) was 1 h. For the same molecule, the Cmax at 7 day ([5]; both sexes, 7-day repeat PO 80 mg/kg, plasma, mean) was 2530 ng/mL, the Tmax ([5]; both sexes, single PO 40 mg/kg, brain) was 4 h and the Cmax [5, 6] was 180 ng/g. The MRT last [5, 6] was 8.15 h, the Tmax ([5]; both sexes, single PO 40 mg/kg, plasma) was 0.5 h and the Cmax [5, 7] was 1140 ng/mL. It also gave an MRT last [5, 7] of 5.26 h, a Tmax ([5]; both sexes, single PO 80 mg/kg, brain) of 4 h and a Cmax [5, 8] of 528 ng/g. The MRT last [5, 8] was 8.21 h, the Tmax ([5]; both sexes, single PO 80 mg/kg, plasma) was 0.5 h and the Cmax [5, 9] was 3970 ng/mL. It also gave an MRT last [5, 9] of 5.16 h, a Kp ([5]; female, brain, po, 40 mg/kg, mice, single PO 40 mg/kg, female, read-out: AUClast Ratio Brain/Plasma) of 0.332 and a Kp ([5]; female, brain, po, 80 mg/kg, mice, repeat PO 80 mg/kg, female, read-out: AUClast Ratio Brain/Plasma) of 0.588. It also gave a Kp ([5]; female, brain, po, 80 mg/kg, mice, single PO 80 mg/kg, female, read-out: AUClast Ratio Brain/Plasma) of 0.388, an AUC(0-t) ([5]; female, plasma, po, 40 mg/kg, single PO 40 mg/kg) of 6560 ng·h/mL and an AUC(0-t) ([5]; female, plasma, po, 80 mg/kg, 7-day repeat PO 80 mg/kg) of 19500 ng·h/mL. For the same molecule, the AUC(0-t) ([5]; female, plasma, po, 80 mg/kg, single PO 80 mg/kg) was 15800 ng·h/mL, the Kp ([5]; male, brain, po, 40 mg/kg, mice, single PO 40 mg/kg, male, read-out: AUClast Ratio Brain/Plasma) was 0.283 and the Kp ([5]; male, brain, po, 80 mg/kg, mice, repeat PO 80 mg/kg, male, read-out: AUClast Ratio Brain/Plasma) was 0.536. It also gave a Kp ([5]; male, brain, po, 80 mg/kg, mice, single PO 80 mg/kg, male, read-out: AUClast Ratio Brain/Plasma) of 0.361, an AUC(0-t) ([5]; male, plasma, po, 40 mg/kg, single PO 40 mg/kg) of 6640 ng·h/mL and an AUC(0-t) ([5]; male, plasma, po, 80 mg/kg, 7-day repeat PO 80 mg/kg) of 16000 ng·h/mL. The AUC(0-t) ([5]; male, plasma, po, 80 mg/kg, single PO 80 mg/kg) was 15400 ng·h/mL, the “drug accumulation in brain” value [5, 10] was “no obvious drug accumulation” and the “drug accumulation in plasma” value [5, 10] was “no obvious drug accumulation”. The “mean concentration at 24 hr post-dose as % of Cmax” value ([5]; mice, 7-day repeat PO 80 mg/kg, brain, both sexes) was 14.4-18.9%, the “mean concentration at 24 hr post-dose as % of Cmax” value ([5]; mice, 7-day repeat PO 80 mg/kg, plasma, both sexes) was 2.68-3.94% and the “AUClast Ratio, group 2 vs 1” value ([5]; mice, brain, female) was 2.81. For the same molecule, the “Cmax Ratio, group 2 vs 1” value ([5]; mice, brain, female) was 2.89, the “AUClast Ratio, group 2 vs 1” value ([5]; mice, brain, male) was 2.96 and the “Cmax Ratio, group 2 vs 1” value ([5]; mice, brain, male) was 3.00. The “AUClast Ratio, group 2 vs 1” value ([5]; mice, plasma, female) was 2.41, the “Cmax Ratio, group 2 vs 1” value ([5]; mice, plasma, female) was 3.47 and the “AUClast Ratio, group 2 vs 1” value ([5]; mice, plasma, male) was 2.32. The “Cmax Ratio, group 2 vs 1” value ([5]; mice, plasma, male) was 3.50, the distribution ([5]; mice, all dose groups) was “distributed to brain” and the “duration of brain exposure” value ([5]; mice, all dose groups) was 24 h. The “gender-related differences in exposure in brain” value [5, 11] was “No gender-related differences”, the “gender-related differences in exposure in plasma” value [5, 11] was “No gender-related differences” and the AUClast ratios females/males ([5]; mice, brain) was 1.10-1.34. The Cmax ratios females/males ([5]; mice, brain) was 1.11-1.24, the “AUClast ratios 7-day repeat vs single-dose 80 mg/kg” value ([5]; mice, brain, both sexes) was 1.54-1.87 and the “AUClast ratios 80 vs 40 mg/kg single dose” value ([5]; mice, brain, both sexes) was 2.81-2.96. For the same molecule, the “Cmax ratios 7-day repeat vs single-dose 80 mg/kg” value ([5]; mice, brain, both sexes) was 1.44-1.60, the AUClast ratios females/males ([5]; mice, plasma) was 0.989-1.22 and the Cmax ratios females/males ([5]; mice, plasma) was 0.967-1.27.
